Test results from EP2255814A1, “AGENT FOR INCREASING THE QUANTITY OF HYALURONIC ACID” (Nagase ChemteX Corporation, priority 2008, dated 2009).

Tests used:
[1] = system: Normal human dermal fibroblasts (NHDF(AD)); assay: Hyaluronan production promoting effect in fibroblasts (ELISA of culture supernatant); type: cell-based; conditions: phospholipid liposome at 100 µg/mL, 24 hours
Procedure: Normal human dermal fibroblasts (NHDF(AD); Kurabo Industries, Ltd.) were seeded at 2×10^5/well in 24-well plates. After 24-hour preculture, the culture media were removed and replaced with culture media each containing a different phospholipid liposome at 100 µg/mL, i.e. , the PI-PS containing liposome obtained in Preparation Example 2, the PI liposome obtained in Preparation Example 3, or the PS liposome obtained in Preparation Example 4. The culture was maintained for 24 hours. The culture supernatant was collected and hyaluronan therein was quantified by the ELISA method.
A hyaluronan binding protein (HABP; SEIKAGAKU CORPORATION) was added at 2 µg/mL to 96-well plates, which were then allowed to stand at 4°C for 24 hours. After this, the wells were washed. Blocking was performed at 4°C for 24 hours using Block Ace (Dainippon Sumitomo Pharma Co., Ltd.). After the wells were washed, a hyaluronan standard (Wako Pure Chemical Industries, Ltd.) or the culture supernatant was added to the wells and 1-hour incubation was performed at 37°C. After the wells were washed, biotinylated HABP (SEIKAGAKU CORPORATION) was added to the wells and 2-hour incubation was performed at 37°C. […] After the reaction at 37°C for 30 minutes, the absorbance at 405 nm was measured.

hyaluronan synthase HAS2 = assay: Augmentation effect on mRNA expression of hyaluronan synthase HAS2 (semi-quantitative RT-PCR); type: cell-based; conditions: human fibroblast NHDF(AD), phospholipid liposome in culture medium, 24 hours; concentrations only in Fig. 1
Procedure: Normal human fibroblasts (NHDF(AD); Kurabo Industries Ltd.) were seeded at 8×10^5/well in 6-well plates. After 24-hour preculture, the culture media were removed and replaced with culture media each containing a different phospholipid liposome prepared in Preparation Examples 2 to 4. The culture was maintained for 24 hours. Then, after removal of the culture medium and addition of 1 mL of ISOGEN (NIPPON GENE), RNA was extracted from the cells according to the usual method described in the attachment of ISOGEN.
cDNA preparation was performed using SuperScriptIII First-Strand Synthesis System for RT-PCR (Invitrogen) according to the operating procedures described in the attachment of the kit. RT-PCR was performed using primers below. HAS2 (Forward): […] (SEQ ID NO: 1) HAS2 (Reverse): […] (SEQ ID NO: 2) β-actin (Forward): […] (SEQ ID NO: 3) β-actin (Reverse): […] (SEQ ID NO: 4)
Using each of the obtained cDNA and the HAS2 primer set, PCR was performed for 29 cycles of 94°C for 1 min, 58°C for 1 min, and 72°C for 1 min. […] After completion of PCR, the PCR product was analyzed by electrophoresis in 1.5% agarose gel. Each band strength was determined by densitometry and the degree of increase in HAS2 mRNA expression was semi-quantitatively assessed by comparison of the HAS2/β-actin ratios between samples and the control. […]

Row | Substance | production of hyaluronan [1] | mRNA expression of HAS2 (HAS2/β-actin ratio relative to control cells) (hyaluronan synthase HAS2)
1 | L-α-phosphatidylserine [PS] | significantly increased | significantly increased
2 | L-α-phosphatidylinositol Na [PI] | significantly increased | significantly increased
